Experimental data: PubChem BioAssay (NCI)
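Tested at 5 concentrations; 48 h exposure; 96-well plates; endpoints linearly interpolated, else capped at highest concentration. GI50 marks 50% less growth. TGI: total growth inhibition.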

Assays:
Assay in all cases: NCI-60 cell line screen, 48 h
MDA-MB-435 = system: MDA-MB-435
NCI-H460 lung = system: NCI-H460 lung
SK-MEL-2 melanoma = system: SK-MEL-2 melanoma
SF-539 CNS = system: SF-539 CNS
OVCAR-4 ovarian = system: OVCAR-4 ovarian
RPMI-8226 leukemia = system: RPMI-8226 leukemia
U251 CNS = system: U251 CNS
RXF 393 renal = system: RXF 393 renal
HCT-15 colon = system: HCT-15 colon
HCC-2998 colon = system: HCC-2998 colon
MOLT-4 leukemia = system: MOLT-4 leukemia
HL-60(TB) leukemia = system: HL-60(TB) leukemia
A549 NSCLC = system: A549 NSCLC
UACC-257 melanoma = system: UACC-257 melanoma
EKVX NSCLC = system: EKVX NSCLC
SR leukemia = system: SR leukemia
HS 578T breast = system: HS 578T breast
PC-3 prostate = system: PC-3 prostate
SN12C renal = system: SN12C renal
OVCAR-8 ovarian = system: OVCAR-8 ovarian
M14 melanoma = system: M14 melanoma
OVCAR-5 ovarian = system: OVCAR-5 ovarian
HOP-92 NSCLC = system: HOP-92 NSCLC
DU-145 prostate = system: DU-145 prostate
SNB-75 CNS = system: SNB-75 CNS
OVCAR-3 ovarian = system: OVCAR-3 ovarian
BT-549 breast = system: BT-549 breast
UO-31 renal = system: UO-31 renal
SF-295 CNS = system: SF-295 CNS
CCRF-CEM leukemia = system: CCRF-CEM leukemia
SK-OV-3 ovarian = system: SK-OV-3 ovarian
NCI/ADR-RES ovarian = system: NCI/ADR-RES ovarian
MALME-3M melanoma = system: MALME-3M melanoma
A498 renal = system: A498 renal
786-0 renal = system: 786-0 renal
KM12 colon = system: KM12 colon
HOP-62 NSCLC = system: HOP-62 NSCLC
SW-620 colon = system: SW-620 colon
K-562 leukemia = system: K-562 leukemia
UACC-62 melanoma = system: UACC-62 melanoma
TK-10 renal = system: TK-10 renal
HT29 colon = system: HT29 colon
SK-MEL-5 melanoma = system: SK-MEL-5 melanoma
NCI-H522 lung = system: NCI-H522 lung
HCT-116 colon = system: HCT-116 colon
SK-MEL-28 melanoma = system: SK-MEL-28 melanoma
IGROV1 ovarian = system: IGROV1 ovarian
COLO 205 colon = system: COLO 205 colon
ACHN renal = system: ACHN renal
CAKI-1 renal = system: CAKI-1 renal

CNC(=O)c1cc(Oc2ccc3nc(NC(=O)c4ccc(CN5CCCN(C)CC5)c(C(F)(F)F)c4)sc3c2)ccn1
GI50 (MDA-MB-435): 1480 nM | TGI (MDA-MB-435): 2880 nM | GI50 (NCI-H460 lung): 1650 nM | TGI (NCI-H460 lung): 3140 nM | GI50 (SK-MEL-2 melanoma): 1780 nM | TGI (SK-MEL-2 melanoma): 3380 nM | GI50 (SF-539 CNS): 1100 nM | TGI (SF-539 CNS): 2320 nM | GI50 (OVCAR-4 ovarian): 1600 nM | TGI (OVCAR-4 ovarian): 3110 nM | GI50 (RPMI-8226 leukemia): 694 nM | TGI (RPMI-8226 leukemia): 2600 nM | GI50 (U251 CNS): 1440 nM | TGI (U251 CNS): 2800 nM | GI50 (RXF 393 renal): 1070 nM | TGI (RXF 393 renal): 2270 nM | GI50 (HCT-15 colon): 959 nM | TGI (HCT-15 colon): 2240 nM | GI50 (HCC-2998 colon): 1880 nM | TGI (HCC-2998 colon): 3360 nM | GI50 (MOLT-4 leukemia): 1460 nM | TGI (MOLT-4 leukemia): 3100 nM | GI50 (HL-60(TB) leukemia): 1350 nM | TGI (HL-60(TB) leukemia): 2940 nM | GI50 (A549 NSCLC): 1640 nM | TGI (A549 NSCLC): 3080 nM | GI50 (UACC-257 melanoma): 1570 nM | TGI (UACC-257 melanoma): 2950 nM | GI50 (EKVX NSCLC): 1700 nM | TGI (EKVX NSCLC): 3140 nM | GI50 (SR leukemia): 502 nM | TGI (SR leukemia): 2150 nM | GI50 (HS 578T breast): 1480 nM | TGI (HS 578T breast): 3800 nM | GI50 (PC-3 prostate): 1480 nM | TGI (PC-3 prostate): 3240 nM | GI50 (SN12C renal): 1730 nM | TGI (SN12C renal): 3300 nM | GI50 (OVCAR-8 ovarian): 1670 nM | TGI (OVCAR-8 ovarian): 3180 nM | GI50 (M14 melanoma): 1220 nM | TGI (M14 melanoma): 2650 nM | GI50 (OVCAR-5 ovarian): 1640 nM | TGI (OVCAR-5 ovarian): 3070 nM | GI50 (HOP-92 NSCLC): 1360 nM | TGI (HOP-92 NSCLC): 3000 nM | GI50 (DU-145 prostate): 1700 nM | TGI (DU-145 prostate): 3280 nM | GI50 (SNB-75 CNS): 1220 nM | TGI (SNB-75 CNS): 2480 nM | GI50 (OVCAR-3 ovarian): 1850 nM | TGI (OVCAR-3 ovarian): 3410 nM | GI50 (BT-549 breast): 1680 nM | TGI (BT-549 breast): 3140 nM | GI50 (UO-31 renal): 1350 nM | TGI (UO-31 renal): 2710 nM | GI50 (SF-295 CNS): 1760 nM | TGI (SF-295 CNS): 3220 nM | GI50 (CCRF-CEM leukemia): 1800 nM | TGI (CCRF-CEM leukemia): 4060 nM | GI50 (SK-OV-3 ovarian): 1760 nM | TGI (SK-OV-3 ovarian): 3270 nM | GI50 (NCI/ADR-RES ovarian): 1680 nM | TGI (NCI/ADR-RES ovarian): 3530 nM | GI50 (MALME-3M melanoma): 1400 nM | TGI (MALME-3M melanoma): 2840 nM | GI50 (A498 renal): 1960 nM | TGI (A498 renal): 3380 nM | GI50 (786-0 renal): 1250 nM | TGI (786-0 renal): 2550 nM | GI50 (KM12 colon): 1680 nM | TGI (KM12 colon): 3210 nM | GI50 (HOP-62 NSCLC): 1610 nM | TGI (HOP-62 NSCLC): 3080 nM | GI50 (SW-620 colon): 1700 nM | TGI (SW-620 colon): 3190 nM | GI50 (K-562 leukemia): 331 nM | TGI (K-562 leukemia): 1460 nM | GI50 (UACC-62 melanoma): 1690 nM | TGI (UACC-62 melanoma): 3320 nM | GI50 (TK-10 renal): 2400 nM | TGI (TK-10 renal): 4030 nM | GI50 (HT29 colon): 387 nM | TGI (HT29 colon): 1480 nM | GI50 (SK-MEL-5 melanoma): 1590 nM | TGI (SK-MEL-5 melanoma): 2980 nM | GI50 (NCI-H522 lung): 1740 nM | TGI (NCI-H522 lung): 3310 nM | GI50 (HCT-116 colon): 1160 nM | TGI (HCT-116 colon): 2400 nM | GI50 (SK-MEL-28 melanoma): 1300 nM | TGI (SK-MEL-28 melanoma): 2640 nM | GI50 (IGROV1 ovarian): 1740 nM | TGI (IGROV1 ovarian): 3400 nM | GI50 (COLO 205 colon): 1390 nM | TGI (COLO 205 colon): 2780 nM | GI50 (ACHN renal): 1720 nM | TGI (ACHN renal): 3090 nM | GI50 (CAKI-1 renal): 1520 nM | TGI (CAKI-1 renal): 2900 nM
